From US11560371B2, “Cereblon binding compounds, compositions thereof, and methods of treatment therewith” (Celgene Corporation, priority 2020, dated 2023)
Structures can show the parent of a compound that is named as a salt.

Molecular target: T1, AR (Homo sapiens, UniProt P10275)
T1 construct: endogenous in cells; host or cells: VCaP cells
T1 sequence (P10275 1-920): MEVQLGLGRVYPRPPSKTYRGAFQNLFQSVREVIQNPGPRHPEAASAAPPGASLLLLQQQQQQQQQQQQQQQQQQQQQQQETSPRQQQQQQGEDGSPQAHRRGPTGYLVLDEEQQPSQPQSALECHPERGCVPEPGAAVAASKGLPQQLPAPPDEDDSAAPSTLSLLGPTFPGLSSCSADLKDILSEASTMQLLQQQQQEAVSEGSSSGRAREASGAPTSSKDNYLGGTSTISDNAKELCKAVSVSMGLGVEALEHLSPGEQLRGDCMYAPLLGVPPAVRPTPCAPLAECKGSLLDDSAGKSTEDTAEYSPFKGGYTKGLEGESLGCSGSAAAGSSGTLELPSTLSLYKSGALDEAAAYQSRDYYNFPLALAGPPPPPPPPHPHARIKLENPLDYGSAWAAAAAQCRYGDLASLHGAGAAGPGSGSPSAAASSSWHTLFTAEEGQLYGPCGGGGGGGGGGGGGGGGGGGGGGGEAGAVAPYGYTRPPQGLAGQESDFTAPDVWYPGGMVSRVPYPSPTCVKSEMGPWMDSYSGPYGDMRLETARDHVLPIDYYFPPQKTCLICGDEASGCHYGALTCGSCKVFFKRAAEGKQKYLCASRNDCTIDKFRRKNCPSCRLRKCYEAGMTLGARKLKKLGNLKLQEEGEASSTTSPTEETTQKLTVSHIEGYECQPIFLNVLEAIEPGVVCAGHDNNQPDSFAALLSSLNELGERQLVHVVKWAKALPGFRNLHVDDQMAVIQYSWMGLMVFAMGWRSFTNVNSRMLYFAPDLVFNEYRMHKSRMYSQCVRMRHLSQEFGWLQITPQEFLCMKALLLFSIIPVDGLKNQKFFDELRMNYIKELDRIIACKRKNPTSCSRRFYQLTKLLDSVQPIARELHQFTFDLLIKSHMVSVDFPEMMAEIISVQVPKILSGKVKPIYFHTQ
Test: VCAP AR Degradation Assay
Format: cell-based
Conditions: VCaP cells, 24 h, AR ELISA; for DC50: concentration of compound when AR level = 50% of DMSO control (50% AR degradation); for Y: lowest measured AR level normalized to DMSO control (AR degradation efficiency)
Experimental: VCAP AR Degradation Assay. Test compounds were pre-dispensed into a Corning CellBind 96-well clear bottom plate (Cat #3300) using an acoustic dispenser to make a 10-point concentration series at 1:3 dilution for each compound. The final top concentration of each compound was 5 μM. DMSO at a final concentration of 0.1% was used as a control. VCaP cells cultured in DMEM with 8% fetal bovine serum (FBS) were seeded at 50K cells per well in a 200 μL volume into the compound plate and incubated at 37° C. in a CO2 incubator for 24 h. The medium was carefully removed from the cells and the plate was placed on ice. […] ice-cold 1× cell lysis buffer from Cell Signaling Technologies (Cat #9803) was added to each well of the cells and the plate was incubated at 4° C. on a shaker for 1 h. Fifteen μL of cell lysate was used for AR ELISA detection using a PathScan Total Sandwich AR ELISA kit (Cell Signaling Technology, Cat #12580). AR levels in compound-treated wells were normalized to that of DMSO control and expressed as percent of control (PoC) (y). A Four Parameter Logistic Model (Sigmoidal Dose-Response Model) was used to determine the compound's DC50, and EC50, using the following equation: y=(A+((B−A)/(1+((C/x)^D)))) • A=YMin (lowest AR level normalized to DMSO control in response to compound treatment, as determined by curve fit) • B=YMax (maximum AR level as determined by curve fit) • C=EC50 • D=Hill Slope • x=compound concentration • EC50=the concentration of compound when y=[…] • DC50=the concentration of the compound when y=50% of DMSO control (50% AR degradation) • y=AR protein level normalized to DMSO control
The lowest measured AR level normalized to DMSO control in response to compound treatment, termed Y value, was used to characterize the compound-mediated AR degradation efficiency.

| Compound | DC50 | Y |
| --- | --- | --- |
| C[C@@H]1CN(CCO[C@H]2CC[C@H](N3C(=S)N(c4ccc(C#N)c(C(F)(F)F)c4)C(=O)C3(C)C)CC2)C[C@H](C)N1CC(=O)Nc1cccc2c(N3CCC(=O)NC3=O)nn(C)c12 [Cmpd 1, 2-((2S,6R)-4-(2-((trans-4-(3-(4-Cyano-3-(trifluoromethyl)phenyl)-5,5-dimethyl-4-oxo-2-thioxoimidazolidin-1-yl)cyclohexyl)oxy)ethyl)-2,6-dimethylpiperazin-1-yl)-N-(3-(2,4-dioxotetrahydropyrimidin-1(2H)-yl)-1-methyl-1H-indazol-7-yl)acetamide hydrochloride] | 10 to 100 nM | *** (30%<Y<60%) |
| C[C@@H]1CN(CCC[C@H]2CC[C@H](N3C(=S)N(c4ccc(C#N)c(C(F)(F)F)c4)C(=O)C3(C)C)CC2)C[C@H](C)N1CC(=O)Nc1cccc2c(N3CCC(=O)NC3=O)nn(C)c12 [Cmpd 2, 2-((2R,6S)-4-(3-(trans-4-(3-(4-Cyano-3-(trifluoromethyl)phenyl)-5,5-dimethyl-4-oxo-2-thioxoimidazolidin-1-yl)cyclohexyl)propyl)-2,6-dimethylpiperazin-1-yl)-N-(3-(2,4-dioxotetrahydropyrimidin-1(2H)-yl)-1-methyl-1H-indazol-7-yl)acetamide hydrochloride] | 2 to 10 nM | ** (20%<Y≤%) |
| C[C@@H]1CN(CCO[C@H]2CC[C@H](N3C(=S)N(c4ccc(C#N)c(Cl)c4)C(=O)C3(C)C)CC2)C[C@H](C)N1CC(=O)Nc1cccc2c(N3CCC(=O)NC3=O)nn(C)c12 [Cmpd 3, 2-((2R,6S)-4-(2-((trans-4-(3-(3-Chloro-4-cyanophenyl)-5,5-dimethyl-4-oxo-2-thioxoimidazolidin-1-yl)cyclohexyl)oxy)ethyl)-2,6-dimethylpiperazin-1-yl)-N-(3-(2,4-dioxotetrahydropyrimidin-1(2H)-yl)-1-methyl-1H-indazol-7-yl)acetamide hydrochloride] | 2 to 10 nM | *** (30%<Y<60%) |
| C[C@@H]1CN(CCO[C@H]2CC[C@H](N3C(=S)N(c4cnc(C#N)c(C(F)(F)F)c4)C(=O)C3(C)C)CC2)C[C@H](C)N1CC(=O)Nc1cccc2c(N3CCC(=O)NC3=O)nn(C)c12 [Cmpd 4, 2-((2R,6S)-4-(2-((trans-4-(3-(6-Cyano-5-(trifluoromethyl)pyridin-3-yl)-5,5-dimethyl-4-oxo-2-thioxoimidazolidin-1-yl)cyclohexyl)oxy)ethyl)-2,6-dimethylpiperazin-1-yl)-N-(3-(2,4-dioxotetrahydropyrimidin-1(2H)-yl)-1-methyl-1H-indazol-7-yl)acetamide hydrochloride] | 2 to 10 nM | ** (20%<Y≤%) |
| C[C@@H]1CN(CCO[C@H]2CC[C@H](N3C(=S)N(c4ccc(C#N)c(C(F)(F)F)c4)C(=O)C3(C)C)CC2)C[C@H](C)N1CCC(=O)Nc1cccc2c(N3CCC(=O)NC3=O)nn(C)c12 [Cmpd 5, 3-((2R,6S)-4-(2-((trans-4-(3-(4-Cyano-3-(trifluoromethyl)phenyl)-5,5-dimethyl-4-oxo-2-thioxoimidazolidin-1-yl)cyclohexyl)oxy)ethyl)-2,6-dimethylpiperazin-1-yl)-N-(3-(2,4-dioxotetrahydropyrimidin-1(2H)-yl)-1-methyl-1H-indazol-7-yl)propanamide] | 2 to 10 nM | *** (30%<Y<60%) |
| C[C@@H]1CN(CCO[C@H]2CC[C@H](N3C(=S)N(c4cnc(C#N)c(Cl)c4)C(=O)C3(C)C)CC2)C[C@H](C)N1CC(=O)Nc1cccc2c(N3CCC(=O)NC3=O)nn(C)c12 [Cmpd 6, 2-((2R,6S)-4-(2-((trans-4-(3-(5-Chloro-6-cyanopyridin-3-yl)-5,5-dimethyl-4-oxo-2-thioxoimidazolidin-1-yl)cyclohexyl)oxy)ethyl)-2,6-dimethylpiperazin-1-yl)-N-(3-(2,4-dioxotetrahydropyrimidin-1(2H)-yl)-1-methyl-1H-indazol-7-yl)acetamide hydrochloride] | ≤ 2 nM | * (0<Y≤20%) |
| C[C@@H]1CN(CCCO[C@H]2CC[C@H](N3C(=S)N(c4cnc(C#N)c(C(F)(F)F)c4)C(=O)C3(C)C)CC2)C[C@H](C)N1CC(=O)Nc1cccc2c(N3CCC(=O)NC3=O)nn(C)c12 [Cmpd 7, 2-((2R,6S)-4-(3-((trans-4-(3-(6-Cyano-5-(trifluoromethyl)pyridin-3-yl)-5,5-dimethyl-4-oxo-2-thioxoimidazolidin-1-yl)cyclohexyl)oxy)propyl)-2,6-dimethylpiperazin-1-yl)-N-(3-(2,4-dioxotetrahydropyrimidin-1(2H)-yl)-1-methyl-1H-indazol-7-yl)acetamide hydrochloride] | ≤ 2 nM | ** (20%<Y≤%) |
| C[C@@H]1CN(CCCO[C@H]2CC[C@H](N3C(=S)N(c4ccc(C#N)c(C(F)(F)F)c4)C(=O)C3(C)C)CC2)C[C@H](C)N1CC(=O)Nc1cccc2c(N3CCC(=O)NC3=O)nn(C)c12 [Cmpd 8, 2-((2R,6S)-4-(3-((trans-4-(3-(4-Cyano-3-(trifluoromethyl)phenyl)-5,5-dimethyl-4-oxo-2-thioxoimidazolidin-1-yl)cyclohexyl)oxy)propyl)-2,6-dimethylpiperazin-1-yl)-N-(3-(2,4-dioxotetrahydropyrimidin-1(2H)-yl)-1-methyl-1H-indazol-7-yl)acetamide hydrochloride] | ≤ 2 nM | * (0<Y≤20%) |
| C[C@@H]1CN(CCCO[C@H]2CC[C@H](N3C(=S)N(c4ccc(C#N)c(Cl)c4)C(=O)C3(C)C)CC2)C[C@H](C)N1CC(=O)Nc1cccc2c(N3CCC(=O)NC3=O)nn(C)c12 [Cmpd 9, 2-((2R,6S)-4-(3-((trans-4-(3-(3-Chloro-4-cyanophenyl)-5,5-dimethyl-4-oxo-2-thioxoimidazolidin-1-yl)cyclohexyl)oxy)propyl)-2,6-dimethylpiperazin-1-yl)-N-(3-(2,4-dioxotetrahydropyrimidin-1(2H)-yl)-1-methyl-1H-indazol-7-yl)acetamide hydrochloride] | ≤ 2 nM | * (0<Y≤20%) |
| C[C@@H]1CN(CCC[C@H]2CC[C@H](N3C(=S)N(c4cnc(C#N)c(C(F)(F)F)c4)C(=O)C3(C)C)CC2)C[C@H](C)N1CC(=O)Nc1cccc2c(N3CCC(=O)NC3=O)nn(C)c12 [Cmpd 10, 2-((2R,6S)-4-(3-(trans-4-(3-(6-Cyano-5-(trifluoromethyl)pyridin-3-yl)-5,5-dimethyl-4-oxo-2-thioxoimidazolidin-1-yl)cyclohexyl)propyl)-2,6-dimethylpiperazin-1-yl)-N-(3-(2,4-dioxotetrahydropyrimidin-1(2H)-yl)-1-methyl-1H-indazol-7-yl)acetamide hydrochloride] | 2 to 10 nM | * (0<Y≤20%) |
| C[C@@H]1CN(CCC[C@H]2CC[C@H](N3C(=S)N(c4ccc(C#N)c(Cl)c4)C(=O)C3(C)C)CC2)C[C@H](C)N1CC(=O)Nc1cccc2c(N3CCC(=O)NC3=O)nn(C)c12 [Cmpd 11, 2-((2S,6R)-4-(3-(trans-4-(3-(3-Chloro-4-cyanophenyl)-5,5-dimethyl-4-oxo-2-thioxoimidazolidin-1-yl)cyclohexyl)propyl)-2,6-dimethylpiperazin-1-yl)-N-(3-(2,4-dioxotetrahydropyrimidin-1(2H)-yl)-1-methyl-1H-indazol-7-yl)acetamide hydrochloride] | 10 to 100 nM | *** (30%<Y<60%) |
